{"source": "ChEMBL document CHEMBL5696443", "about": "(Clin Cancer Res, 2016)", "key": {"[1]": {"biological_target": "Fibroblast growth factor receptor 3 (Homo sapiens, UniProt P22607)", "test": "Inhibition of human FGFR3 using poly (Glu, Tyr)4:1 as substrate in presence of [gamma33P]-ATP by HotSpot assay"}, "[2]": {"biological_target": "Maternal embryonic leucine zipper kinase (Homo sapiens, UniProt Q14680)", "sequence (Q14680 whole entry)": "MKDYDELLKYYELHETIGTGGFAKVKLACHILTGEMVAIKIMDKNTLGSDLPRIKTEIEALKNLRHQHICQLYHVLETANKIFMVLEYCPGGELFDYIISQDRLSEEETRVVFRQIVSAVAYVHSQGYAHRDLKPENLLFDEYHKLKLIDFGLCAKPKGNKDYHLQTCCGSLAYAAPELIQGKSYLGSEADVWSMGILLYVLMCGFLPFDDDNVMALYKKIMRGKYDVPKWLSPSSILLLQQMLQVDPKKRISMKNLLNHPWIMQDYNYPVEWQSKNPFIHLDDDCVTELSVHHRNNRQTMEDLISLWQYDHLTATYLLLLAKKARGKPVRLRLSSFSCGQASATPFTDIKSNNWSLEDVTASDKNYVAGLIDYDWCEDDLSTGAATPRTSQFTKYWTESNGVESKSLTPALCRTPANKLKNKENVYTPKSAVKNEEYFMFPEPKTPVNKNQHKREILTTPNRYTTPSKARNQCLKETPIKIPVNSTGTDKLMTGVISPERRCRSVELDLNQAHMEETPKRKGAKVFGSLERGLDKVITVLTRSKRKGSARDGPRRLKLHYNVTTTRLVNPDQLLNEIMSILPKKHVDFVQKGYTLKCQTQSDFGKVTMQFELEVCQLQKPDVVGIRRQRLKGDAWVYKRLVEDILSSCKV", "test": "Inhibition of human MELK using KKLNRTLSFAEPG as substrate in presence of [gamma33P]-ATP by HotSpot assay"}, "[3]": {"biological_target": "Calcium/calmodulin-dependent protein kinase type II subunit beta (Homo sapiens) (UniProt Q13554)", "test": "Inhibition of human CAMK2b at 1 uM using KKALRRQETVDAL as substrate in presence of [gamma33P]-ATP by HotSpot assay relative to control"}, "[4]": {"biological_target": "Cyclin-dependent kinase 5/CDK5 activator 1 (Homo sapiens) (UniProt Q00535+Q15078)", "test": "Inhibition of human CDK5/p25 at 1 uM using RB protein as substrate in presence of [gamma33P]-ATP by HotSpot assay relative to control", "format": "protein-complex assay"}, "[5]": {"biological_target": "Casein kinase I isoform alpha (Homo sapiens) (UniProt P48729)", "test": "Inhibition of human CSNK1A1 at 1 uM using KRRRAL[pS]VASLPGL as substrate in presence of [gamma33P]-ATP by HotSpot assay relative to control"}, "[6]": {"biological_target": "Ephrin type-A receptor 3 (Homo sapiens) (UniProt P29320)", "test": "Inhibition of human EPHA3 at 1 uM using poly (Glu, Tyr)4:1 as substrate in presence of [gamma33P]-ATP by HotSpot assay relative to control"}, "[7]": {"biological_target": "Homeodomain-interacting protein kinase 1 (Homo sapiens) (UniProt Q86Z02)", "sequence (Q86Z02 whole entry, looked up)": "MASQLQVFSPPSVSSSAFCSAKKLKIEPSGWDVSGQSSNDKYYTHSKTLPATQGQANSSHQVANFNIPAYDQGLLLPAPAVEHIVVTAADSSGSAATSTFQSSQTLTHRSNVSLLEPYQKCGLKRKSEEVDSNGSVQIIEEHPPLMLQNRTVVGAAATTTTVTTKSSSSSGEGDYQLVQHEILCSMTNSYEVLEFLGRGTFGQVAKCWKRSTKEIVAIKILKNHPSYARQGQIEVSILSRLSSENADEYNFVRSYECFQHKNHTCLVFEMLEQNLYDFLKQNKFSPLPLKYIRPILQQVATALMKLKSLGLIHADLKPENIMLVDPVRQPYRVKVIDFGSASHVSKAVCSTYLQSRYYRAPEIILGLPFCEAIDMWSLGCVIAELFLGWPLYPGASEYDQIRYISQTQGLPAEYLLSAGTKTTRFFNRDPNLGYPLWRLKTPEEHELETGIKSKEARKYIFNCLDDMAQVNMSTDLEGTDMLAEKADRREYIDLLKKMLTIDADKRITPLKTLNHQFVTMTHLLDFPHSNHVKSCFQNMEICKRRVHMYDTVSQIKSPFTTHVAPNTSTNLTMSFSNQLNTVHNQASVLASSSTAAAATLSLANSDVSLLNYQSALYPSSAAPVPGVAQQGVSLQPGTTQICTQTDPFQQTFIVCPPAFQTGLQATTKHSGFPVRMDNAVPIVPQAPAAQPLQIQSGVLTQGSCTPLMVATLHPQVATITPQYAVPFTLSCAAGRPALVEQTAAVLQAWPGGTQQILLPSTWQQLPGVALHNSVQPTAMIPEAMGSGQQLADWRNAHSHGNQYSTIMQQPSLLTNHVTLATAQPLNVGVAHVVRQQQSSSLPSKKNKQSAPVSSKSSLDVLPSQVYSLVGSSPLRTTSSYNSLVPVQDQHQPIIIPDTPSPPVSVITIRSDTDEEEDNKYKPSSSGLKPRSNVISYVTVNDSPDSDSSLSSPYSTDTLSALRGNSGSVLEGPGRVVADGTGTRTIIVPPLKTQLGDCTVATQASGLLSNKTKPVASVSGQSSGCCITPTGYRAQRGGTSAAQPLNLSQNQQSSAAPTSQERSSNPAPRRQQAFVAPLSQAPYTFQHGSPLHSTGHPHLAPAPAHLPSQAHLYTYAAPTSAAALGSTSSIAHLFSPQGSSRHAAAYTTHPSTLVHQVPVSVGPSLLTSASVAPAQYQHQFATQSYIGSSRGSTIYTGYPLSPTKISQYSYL", "test": "Inhibition of human HIPK1 at 1 uM using MBP as substrate in presence of [gamma33P]-ATP by HotSpot assay relative to control"}, "[8]": {"biological_target": "Mitogen-activated protein kinase 9 (Homo sapiens) (UniProt P45984)", "sequence (P45984 whole entry, looked up)": "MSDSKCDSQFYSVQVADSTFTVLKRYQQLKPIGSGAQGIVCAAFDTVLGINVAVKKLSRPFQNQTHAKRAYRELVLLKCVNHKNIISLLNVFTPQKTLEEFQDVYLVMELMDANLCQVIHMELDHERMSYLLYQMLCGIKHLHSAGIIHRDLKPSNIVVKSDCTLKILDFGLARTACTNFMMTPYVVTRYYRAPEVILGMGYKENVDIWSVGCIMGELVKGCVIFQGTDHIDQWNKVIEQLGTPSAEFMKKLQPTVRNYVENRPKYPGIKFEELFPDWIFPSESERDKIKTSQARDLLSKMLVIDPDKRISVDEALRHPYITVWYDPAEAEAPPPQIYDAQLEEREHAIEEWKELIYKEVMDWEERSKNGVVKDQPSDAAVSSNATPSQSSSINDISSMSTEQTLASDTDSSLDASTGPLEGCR", "test": "Inhibition of human JNK2a2 at 1 uM using ATF2 as substrate in presence of [gamma33P]-ATP by HotSpot assay relative to control"}, "[9]": {"biological_target": "Dual specificity mitogen-activated protein kinase kinase 1 (Homo sapiens) (UniProt Q02750)", "sequence (Q02750 whole entry)": "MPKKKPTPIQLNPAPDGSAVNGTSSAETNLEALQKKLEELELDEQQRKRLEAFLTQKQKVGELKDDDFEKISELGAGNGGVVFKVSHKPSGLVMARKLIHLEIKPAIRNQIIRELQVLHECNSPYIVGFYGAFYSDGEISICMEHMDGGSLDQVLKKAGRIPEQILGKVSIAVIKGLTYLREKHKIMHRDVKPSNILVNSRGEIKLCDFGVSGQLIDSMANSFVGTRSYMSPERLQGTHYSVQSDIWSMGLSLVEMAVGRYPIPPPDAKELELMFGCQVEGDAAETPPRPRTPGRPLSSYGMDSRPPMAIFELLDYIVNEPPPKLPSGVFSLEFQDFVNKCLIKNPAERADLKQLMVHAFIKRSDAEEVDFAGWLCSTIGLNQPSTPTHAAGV", "test": "Inhibition of human MAP2K1 at 1 uM using ERK2 as substrate in presence of [gamma33P]-ATP by HotSpot assay relative to control"}, "[10]": {"biological_target": "Mitogen-activated protein kinase 10 (Homo sapiens) (UniProt P53779)", "test": "Inhibition of human MAPK10 at 1 uM using ATF2 as substrate in presence of [gamma33P]-ATP by HotSpot assay relative to control"}, "[11]": {"biological_target": "Mitogen-activated protein kinase 14 (Homo sapiens) (UniProt Q16539)", "test": "Inhibition of human MAPK14 at 1 uM using MBP as substrate in presence of [gamma33P]-ATP by HotSpot assay relative to control"}, "[12]": {"biological_target": "MAP kinase-activated protein kinase 5 (Homo sapiens) (UniProt Q8IW41)", "sequence (Q8IW41 whole entry)": "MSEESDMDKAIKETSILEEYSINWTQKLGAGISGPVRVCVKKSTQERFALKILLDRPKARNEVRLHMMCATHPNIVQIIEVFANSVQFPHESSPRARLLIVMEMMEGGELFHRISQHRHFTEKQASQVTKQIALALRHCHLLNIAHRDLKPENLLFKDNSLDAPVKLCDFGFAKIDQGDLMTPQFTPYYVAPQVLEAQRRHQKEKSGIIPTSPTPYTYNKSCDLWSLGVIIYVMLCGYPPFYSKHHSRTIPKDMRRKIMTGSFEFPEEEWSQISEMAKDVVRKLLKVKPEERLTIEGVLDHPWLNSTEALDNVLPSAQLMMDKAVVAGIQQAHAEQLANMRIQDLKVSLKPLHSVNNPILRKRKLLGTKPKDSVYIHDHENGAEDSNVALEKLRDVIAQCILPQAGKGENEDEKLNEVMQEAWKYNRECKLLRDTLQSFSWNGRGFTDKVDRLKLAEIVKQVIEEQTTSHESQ", "test": "Inhibition of human MAPKAPK5 at 1 uM using KKLNRTLSVA as substrate in presence of [gamma33P]-ATP by HotSpot assay relative to control"}, "[13]": {"biological_target": "MAP kinase-interacting serine/threonine-protein kinase 2 (Homo sapiens) (UniProt Q9HBH9)", "test": "Inhibition of human MNK2 at 1 uM using MBP as substrate in presence of [gamma33P]-ATP by HotSpot assay relative to control"}, "KARPAS-299 [14]": {"system": "KARPAS-299", "test": "Inhibition of ERK phosphorylation in ALK-positive human KARPAS-299 cells at 1 to 1000 nM incubated for 1 hrs by immunoblot analysis", "format": "cell-based", "settings": "dose 1-1000 nM"}, "[15]": {"biological_target": "High affinity nerve growth factor receptor (Homo sapiens) (UniProt P04629)", "test": "Inhibition of human NTRK1 at 1 uM using poly (Glu, Tyr)4:1 as substrate in presence of [gamma33P]-ATP by HotSpot assay relative to control"}, "[16]": {"biological_target": "Ribosomal protein S6 kinase beta-1 (Homo sapiens) (UniProt P23443)", "sequence (P23443 whole entry, looked up)": "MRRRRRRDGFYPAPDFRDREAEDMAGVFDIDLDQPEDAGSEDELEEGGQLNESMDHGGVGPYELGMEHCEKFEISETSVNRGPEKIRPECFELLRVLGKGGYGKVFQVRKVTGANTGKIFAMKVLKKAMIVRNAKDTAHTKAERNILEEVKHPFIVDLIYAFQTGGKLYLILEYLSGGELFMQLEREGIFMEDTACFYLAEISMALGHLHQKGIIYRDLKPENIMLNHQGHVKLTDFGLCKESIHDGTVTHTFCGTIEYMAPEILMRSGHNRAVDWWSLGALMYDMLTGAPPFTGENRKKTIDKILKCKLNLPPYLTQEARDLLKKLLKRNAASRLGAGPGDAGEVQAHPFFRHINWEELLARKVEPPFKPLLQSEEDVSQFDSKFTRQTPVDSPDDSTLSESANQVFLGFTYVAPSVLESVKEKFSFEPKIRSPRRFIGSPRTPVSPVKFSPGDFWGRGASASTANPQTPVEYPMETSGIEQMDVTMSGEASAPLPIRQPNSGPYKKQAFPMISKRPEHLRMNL", "test": "Inhibition of human P70S6K at 1 uM using KKRNRTLTK as substrate in presence of [gamma33P]-ATP by HotSpot assay relative to control"}, "[17]": {"biological_target": "Platelet-derived growth factor receptor beta (Homo sapiens) (UniProt P09619)", "test": "Inhibition of human PDGFRbeta at 1 uM using poly (Glu, Tyr)4:1 as substrate in presence of [gamma33P]-ATP by HotSpot assay relative to control"}, "[18]": {"biological_target": "Serine/threonine-protein kinase TAO2 (Homo sapiens) (UniProt Q9UL54)", "sequence (Q9UL54 whole entry)": "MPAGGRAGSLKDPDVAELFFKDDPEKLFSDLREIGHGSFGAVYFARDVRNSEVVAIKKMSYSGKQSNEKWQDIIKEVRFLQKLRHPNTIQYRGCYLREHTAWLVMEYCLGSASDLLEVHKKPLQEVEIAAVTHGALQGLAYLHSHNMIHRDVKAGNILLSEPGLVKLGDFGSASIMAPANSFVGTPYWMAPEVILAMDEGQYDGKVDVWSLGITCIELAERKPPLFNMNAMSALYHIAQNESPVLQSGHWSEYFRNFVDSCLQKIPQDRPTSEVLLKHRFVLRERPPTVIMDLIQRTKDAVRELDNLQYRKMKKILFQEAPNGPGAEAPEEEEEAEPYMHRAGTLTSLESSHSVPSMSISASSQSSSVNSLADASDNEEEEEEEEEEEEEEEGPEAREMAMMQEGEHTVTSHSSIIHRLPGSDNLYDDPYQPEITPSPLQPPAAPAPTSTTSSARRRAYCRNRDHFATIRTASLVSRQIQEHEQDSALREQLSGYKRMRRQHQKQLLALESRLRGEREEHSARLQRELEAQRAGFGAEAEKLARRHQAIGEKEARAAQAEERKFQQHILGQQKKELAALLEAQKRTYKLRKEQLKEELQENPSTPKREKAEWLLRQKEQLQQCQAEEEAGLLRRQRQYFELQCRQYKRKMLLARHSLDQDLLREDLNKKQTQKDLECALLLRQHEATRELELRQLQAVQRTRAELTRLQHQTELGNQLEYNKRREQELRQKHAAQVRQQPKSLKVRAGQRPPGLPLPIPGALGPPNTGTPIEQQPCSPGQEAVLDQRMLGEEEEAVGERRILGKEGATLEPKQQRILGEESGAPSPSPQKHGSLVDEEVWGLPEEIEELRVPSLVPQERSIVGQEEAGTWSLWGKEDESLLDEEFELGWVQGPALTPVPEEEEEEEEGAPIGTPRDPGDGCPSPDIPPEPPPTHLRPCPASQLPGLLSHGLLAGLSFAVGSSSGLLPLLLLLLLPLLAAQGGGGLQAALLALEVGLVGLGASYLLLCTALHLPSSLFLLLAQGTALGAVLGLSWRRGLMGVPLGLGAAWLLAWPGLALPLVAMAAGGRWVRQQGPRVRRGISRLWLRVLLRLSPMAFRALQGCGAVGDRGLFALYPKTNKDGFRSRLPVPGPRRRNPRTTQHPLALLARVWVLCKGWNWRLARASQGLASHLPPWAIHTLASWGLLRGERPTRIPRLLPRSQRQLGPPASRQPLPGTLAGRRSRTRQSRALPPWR", "test": "Inhibition of human TAOK2 at 1 uM using MBP as substrate in presence of [gamma33P]-ATP by HotSpot assay relative to control"}, "NCI-H2228 [19]": {"system": "NCI-H2228", "test": "Antitumor activity against ALK positive human NCI-H2228 cells xenografted in SCID beige mouse assessed as inhibition of tumor growth administered orally once daily for 21 days", "format": "functional, cell-based", "settings": "dose 10-50 mg/kg, route po, time 21.0 day"}, "KARPAS-299 [20]": {"system": "KARPAS-299", "test": "Antitumor activity against ALK positive human KARPAS-299 cells xenografted in SCID beige mouse assessed as tumor regression at 50 mg/kg, po administered once daily for 14 days and measured after 13 days relative to control", "format": "functional", "settings": "time 27 day"}, "BaF3 [21]": {"system": "BaF3", "test": "Antitumor activity against mouse BaF3 cells expressing native EML4-ALK implanted in mouse assessed as tumor regression at 25 mg/kg, po administered once daily and measured after 8 days relative to control", "format": "functional", "settings": "time 8 day"}, "NCI-H2228 [22]": {"system": "NCI-H2228", "settings": "time 72 hrs"}, "U-937": {"system": "U-937", "settings": "time 72 hrs"}, "DEL": {"system": "DEL", "settings": "time 72 hrs"}, "BaF3 [23]": {"system": "BaF3", "settings": "dose 50 mg/kg; route po; time 8 day"}, "[24]": {"system": "EML4-ALK (Homo sapiens), Q9UM73+Q9HC35 [UNDEFINED MUTATION]", "settings": "BaF3, time 3-5 weeks"}, "[25]": {"system": "EML4-ALK (Homo sapiens), Q9UM73+Q9HC35 [F1174V]", "settings": "BaF3, time 3-5 weeks"}, "[26]": {"system": "EML4-ALK (Homo sapiens), Q9UM73+Q9HC35 [S1206Y]", "settings": "BaF3, time 3-5 weeks"}, "[27]": {"system": "EML4-ALK (Homo sapiens), Q9UM73+Q9HC35 [G1269A]", "settings": "BaF3, time 3-5 weeks"}, "[28]": {"system": "EML4-ALK (Homo sapiens), Q9UM73+Q9HC35 [G1269A]", "settings": "BaF3, dose 500.0 nmol/L, time 3-5 weeks"}, "[29]": {"system": "EML4-ALK (Homo sapiens), Q9UM73+Q9HC35 [E1210K]", "settings": "BaF3, dose 500.0 nmol/L, time 3-5 weeks"}, "in vitro": {"test": "in vitro", "settings": "mouse, BaF3 cells"}}, "note": "Activity calls are given as the source filed them. No cut-off for these calls is given here."}
{"smiles": "COc1cc(N2CCC(N3CCN(C)CC3)CC2)ccc1Nc1ncc(Cl)c(Nc2ccccc2P(C)(C)=O)n1", "note": "[BRIGATINIB]", "values": [{"measurement": "IC50", "setting": "[1]", "result": 358, "unit": "nM"}, {"measurement": "IC50", "setting": "[2]", "result": 895, "unit": "nM"}, {"measurement": "inhibition", "setting": "[3]", "result": "< 90", "unit": "%"}, {"measurement": "inhibition", "setting": "[4]", "result": "< 90", "unit": "%"}, {"measurement": "inhibition", "setting": "[5]", "result": "< 90", "unit": "%"}, {"measurement": "inhibition", "setting": "[6]", "result": "< 90", "unit": "%"}, {"measurement": "inhibition", "setting": "[7]", "result": "< 90", "unit": "%"}, {"measurement": "inhibition", "setting": "[8]", "result": "< 90", "unit": "%"}, {"measurement": "inhibition", "setting": "[9]", "result": "< 90", "unit": "%"}, {"measurement": "inhibition", "setting": "[10]", "result": "< 90", "unit": "%"}, {"measurement": "inhibition", "setting": "[11]", "result": "< 90", "unit": "%"}, {"measurement": "inhibition", "setting": "[12]", "result": "< 90", "unit": "%"}, {"measurement": "inhibition", "setting": "[13]", "result": "< 90", "unit": "%"}, {"measurement": "inhibition", "setting": "KARPAS-299 [14]", "result": "Active"}, {"measurement": "inhibition", "setting": "[15]", "result": "< 90", "unit": "%"}, {"measurement": "inhibition", "setting": "[16]", "result": "< 90", "unit": "%"}, {"measurement": "inhibition", "setting": "[17]", "result": "< 90", "unit": "%"}, {"measurement": "inhibition", "setting": "[18]", "result": "< 90", "unit": "%"}, {"measurement": "Activity", "setting": "NCI-H2228 [19]", "result": "Dose-Dependent Effect"}, {"measurement": "Activity", "setting": "KARPAS-299 [20]", "result": "~100", "unit": "%"}, {"measurement": "Activity", "setting": "BaF3 [21]", "result": 100, "unit": "%"}, {"measurement": "GI50", "setting": "NCI-H2228 [22]", "result": 10, "unit": "nM"}, {"measurement": "GI50", "setting": "U-937", "result": 2390, "unit": "nM"}, {"measurement": "GI50", "setting": "DEL", "result": 31, "unit": "nM"}, {"measurement": "TGI", "setting": "BaF3 [23]", "result": 88, "unit": "%"}, {"measurement": "IC90", "setting": "[24]", "result": 416, "unit": "nM"}, {"measurement": "IC90", "setting": "[25]", "result": 195, "unit": "nM"}, {"measurement": "IC90", "setting": "[26]", "result": 109, "unit": "nM"}, {"measurement": "IC90", "setting": "[27]", "result": 22, "unit": "nM"}, {"measurement": "inhibition", "setting": "[28]", "result": "Active"}, {"measurement": "inhibition", "setting": "[29]", "result": "Active"}, {"measurement": "IC50", "setting": "in vitro", "result": 3210, "unit": "nM"}, {"measurement": "IC90", "setting": "in vitro", "result": 9500, "unit": "nM"}]}
